# “Also recorded” adds a separate entry of the source.
# Columns and labels:
# [1] = test system: astrocyte (GFAP) and microglia (CD11b/c) activation markers; assay: Glial activation markers (GFAP, CD11b/c) in L5 spinal cord of CCI rats, immunohistochemistry; assay type: in vivo, rat; settings: 60 μg/hr intrathecal across 4 days, vs vehicle; for CD11b/c expression: bilaterally; for GFAP expression in ipsilateral or contralateral dorsal horns: densitometry
# Description: Following the final behavioral testing rats were transcardially perfused first with isotonic saline and then with fresh 4% paraformaldehyde/0.1 M phosphate buffer (4% PFA/PB, pH 7.4). After dissection and immersion post-fixation in 4% PFA/PB for an additional 24 hr, the lumbar spinal cords then dehydrated in 30% sucrose with 0.1% azide at 4° C. until slicing.
# For immunohistochemistry, sections were treated to suppress endogenous peroxidase and to prevent staining of endogenous biotin. The sections were incubated in either primary mouse monoclonal anti-rat glial fibrillary acidic protein (GFAP) (1:500; to visualize astrocyte astrocyte activation; ICN Biomedicals, Costa Mesa, Calif.) or primary mouse monoclonal anti-rat OX-42 (1:500; to visualize microglial activation; BioSource, Camarillo, Calif.) for 24 hr at 4° C. The slides were then incubated in secondary biotinylated goat anti-mouse IgG antibody (1:500; Jackson ImmunoResearch, West Grove, Pa.) overnight at 4° C. Finally sections were reacted using the avidin-biotin complex procedure (ABC, Vector Elite kit; 1:100 in PBS-Triton; 2 hr; Vector laboratories, Burlingame, Calif.) and 3′,3′-diaminobenzidine (DAB; Sigma-Aldrich). Glucose oxidase (Sigma-Aldrich; type V-s; 0.02%) and beta-D-glucose (0.1%) were used to generate hydrogen peroxide. […] ammonium sulfate was added to the DAB solution (0.025% w/v) to intensify the reaction product. One series of sections was processed as described above except that the primary antibody was omitted from the incubation buffer (omission controls). The slides were dried overnight, cleared, and cover slipped.
# Slides were viewed with an Olympus Vannox II bright-field microscope. Images were collected with a Cohu CCD camera coupled to an Apple PowerMac 7200 equipped with NIH Image software (version 1.60). Brightness and contrast were kept constant with the images not altered. The intensity of the light source was calibrated each day.
# Representative sections (10×) of ipsilateral dorsal horns of neuropathic (CCI) rats treated intrathecally with 60 μg/hr (+)-naloxone ([…]), 60 μg/hr (−)-naloxone (FIG. 18F), and vehicle (FIG. 18G) are shown. […] Scale bar=500 μm.
# [2] = test system: rats with chronic constriction injury of the sciatic nerve; assay: Chronic constriction injury (CCI)-induced allodynia, von Frey test; settings: for reversal of neuropathic pain: rat, in vivo; for reversal of CCI-induced allodynia: 60 mg/kg s.c.; for reversal of established CCI-induced allodynia: delivery intrathecally or systemically
# human TLR4 = molecular target: T1, human TLR4 (Homo sapiens, UniProt O00206); assay type: cell-based
# T1 construct: host or cells: HEK 293
# T1 sequence (O00206 24-839): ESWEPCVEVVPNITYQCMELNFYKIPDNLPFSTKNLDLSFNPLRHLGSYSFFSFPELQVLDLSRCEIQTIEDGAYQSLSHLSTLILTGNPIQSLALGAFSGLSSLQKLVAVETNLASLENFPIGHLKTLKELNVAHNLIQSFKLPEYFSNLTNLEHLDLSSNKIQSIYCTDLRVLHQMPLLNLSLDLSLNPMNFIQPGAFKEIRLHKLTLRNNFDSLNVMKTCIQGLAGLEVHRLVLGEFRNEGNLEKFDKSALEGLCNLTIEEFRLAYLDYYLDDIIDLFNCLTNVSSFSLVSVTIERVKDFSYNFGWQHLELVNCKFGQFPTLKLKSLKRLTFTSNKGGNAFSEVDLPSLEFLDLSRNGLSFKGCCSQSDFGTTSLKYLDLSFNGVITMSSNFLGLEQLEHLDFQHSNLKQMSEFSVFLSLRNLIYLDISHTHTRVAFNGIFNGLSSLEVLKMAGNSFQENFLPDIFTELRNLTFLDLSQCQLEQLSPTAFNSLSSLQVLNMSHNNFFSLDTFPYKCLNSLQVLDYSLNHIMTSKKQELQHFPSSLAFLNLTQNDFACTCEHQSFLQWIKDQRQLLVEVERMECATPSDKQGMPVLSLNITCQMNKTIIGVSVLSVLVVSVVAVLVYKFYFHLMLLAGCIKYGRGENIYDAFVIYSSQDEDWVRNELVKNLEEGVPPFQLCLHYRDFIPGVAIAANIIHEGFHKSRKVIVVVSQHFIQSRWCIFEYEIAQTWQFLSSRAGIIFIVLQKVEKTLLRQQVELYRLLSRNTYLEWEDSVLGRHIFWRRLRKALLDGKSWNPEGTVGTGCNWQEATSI
# T1 sequence (Q9Y6Y9 17-160 partner limits assumed): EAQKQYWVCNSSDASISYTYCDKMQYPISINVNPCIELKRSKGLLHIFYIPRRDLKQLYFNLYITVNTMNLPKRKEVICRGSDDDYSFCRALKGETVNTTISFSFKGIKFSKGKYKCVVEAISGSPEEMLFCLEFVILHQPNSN
# [3] = test system: HAPI microglial cell line; assay: HAPI microglial cell line activation by LPS, mRNA; assay type: cell-based
# Description: HAPI microglial cell line was used to examine the effects of (+)-naloxone on microglial activation by LPS. Whereas 100 ng/mL LPS produced elevations in mRNA for CD11b (microglial activation marker), interleukin (IL)-1b, and IL-6, 1 μM (+)-naloxone abolished each of these LPS-induced effects. See FIG. 20 (GAPDH=glyceraldehyde-3-phosphate-dehydrogenase).
# [4] = test system: RAW264.7 mouse macrophage cell line expressing GFP-tagged Akt1 (TLR4 signaling); assay type: cell-based
# TLR4 mRNA = TLR4 mRNA expression in lumbar dorsal spinal cord after chronic intrathecal opioids; assay type: in vivo, rat; settings: 15 μg intrathecal once daily for 7 days, relative to GAPDH
# morphine-treated rats = assay: Chronic systemic morphine & (+)-naloxone experiment (Hargreaves, precipitated withdrawal, weight); assay type: in vivo, rat
# [5] = test system: morphine analgesia in rats; assay: Potentiation of acute morphine analgesia, Hargreaves test; assay type: in vivo, rat
# [6] = 12 mg/day s.c. minipump with 6 mg/day morphine, 7 days
# [7] = about 20 μg co-administered with morphine intrathecally
molecule,measurement,setting,value
(−)-naloxone [reference compound],CD11b/c expression,[1],reliable suppression
same,GFAP expression in ipsilateral or contralateral dorsal horns,[1],neither (+)-nor (−)-naloxone affected
same,reversal of neuropathic pain,[2],reverses neuropathic pain
"CCOC(=O)C1(c2ccccc2)CCN(C)CC1 [pethadine/meperidine, meperidine, reference compound]",TLR4 agonist activity,human TLR4,TLR4 agonists
"Lipopolysaccharide [LPS, reference compound]",mRNA for CD11b,[3]; 100 ng/mL,elevations
same,mRNA for IL-6,[3]; 100 ng/mL,elevations
same,mRNA for interleukin (IL)-1b,[3]; 100 ng/mL,elevations
same,EC50 (SEAP expression),human TLR4,0.21 ng/mL
same,Emax (SEAP expression),human TLR4,"40,956 arbitrary fluorescence units"
same,clearance of GFP-Akt1 from the cytosol,[4],"robust, rapid clearance"
"CN1CC[C@]23c4c5ccc(O[C@@H]6O[C@H](C(=O)O)[C@@H](O)[C@H](O)[C@H]6O)c4O[C@H]2[C@@H](O)C=C[C@H]3[C@H]1C5 [M3G, morphine-3-glucuronide, reference compound]",TLR4 agonist activity,human TLR4,showed TLR4 agonist activity
"CN1CC[C@]23c4c5ccc(O)c4O[C@H]2[C@@H](O[C@@H]2O[C@H](C(=O)O)[C@@H](O)[C@H](O)[C@H]2O)C=C[C@H]3[C@H]1C5 [M6G, morphine-6-glucuronide, reference compound]",TLR4 agonist activity,human TLR4,not found to have any significant TLR4 agonist activity
"CCC(=O)C(CC(C)N(C)C)(c1ccccc1)c1ccccc1 (centres unmarked) [methadone, reference compound]",TLR4 agonist activity,human TLR4,TLR4 agonists
(−)-methadone,TLR4 mRNA in lumbar dorsal spinal cord,TLR4 mRNA,significant elevation
CCC(=O)C(C[C@H](C)N(C)C)(c1ccccc1)c1ccccc1 [(+)-methadone],TLR4 mRNA in lumbar dorsal spinal cord,TLR4 mRNA,significant elevation
"COc1ccc2c3c1O[C@H]1C(=O)CC[C@@]4(O)[C@@H](C2)N(C)CC[C@]314 [oxycodone, reference compound]",TLR4 agonist activity,human TLR4,TLR4 agonists
"C=CCN1CC[C@]23c4c5ccc(O)c4O[C@H]2C(=O)CC[C@]3(O)[C@H]1C5 [(+)-naloxone, (+)-Naloxone]",development of morphine-induced hyperalgesia,morphine-treated rats; [6],blocked the development of morphine-induced hyperalgesia
same,development of tolerance,morphine-treated rats; [6],attenuated the development of tolerance
same,morphine analgesia,morphine-treated rats; [6],potentiated
same,weight gain,morphine-treated rats; [6],enabled normal weight gain
same,withdrawal behaviors,morphine-treated rats; withdrawal precipitated by 100 mg/kg (−)-naltrexone on day 7,reduced withdrawal behaviors
same,LPS-induced elevation in mRNA for CD11b,[3]; 1 μM with 100 ng/mL LPS,abolished
same,LPS-induced elevation in mRNA for IL-6,[3]; 1 μM with 100 ng/mL LPS,abolished
same,LPS-induced elevation in mRNA for interleukin (IL)-1b,[3]; 1 μM with 100 ng/mL LPS,abolished
same,M3G induced TLR4 signaling,human TLR4,attenuation
same,antagonism of LPS activity at TLR4,human TLR4,significant non-competitive antagonism; also recorded: non-competitively antagonizes
same,effect on basal unstimulated SEAP expression,human TLR4,no substantial effect
same,increase in the EC50 of LPS,human TLR4,3 fold
same,morphine induced TLR4 signaling,human TLR4,attenuation
same,reduction in the Emax of LPS,human TLR4,40%
same,CD11b/c expression,[1],reliable suppression
same,GFAP expression in ipsilateral or contralateral dorsal horns,[1],neither (+)-nor (−)-naloxone affected
same,morphine analgesia,[5]; 20 μg intrathecal with subcutaneous morphine 4 mg/kg,significantly potentiated; also recorded: potentiation
same,morphine analgesia,[5]; [7],significant potentiation of analgesia
same,reversal of CCI-induced allodynia,[2]; 30 min,not significantly
same,reversal of CCI-induced allodynia,[2]; 90 min,reversed CCI-induced allodynia; also recorded: reversed established allodynia; also recorded: acutely reverses
same,ipsilateral and contralateral mechanical allodynia,"[2]; 100 mg/kg subcutaneous, 14 days after CCI",reliable attenuation
same,reversal of neuropathic pain,[2],reverses neuropathic pain
same,morphine-induced Akt1 response,[4]; morphine 100 μM,blocked
same,LPS-induced Akt1 response,[4]; preincubation 1mM prior to LPS 7.5 μg/mL,significantly attenuated
(−)-naltrexone [reference compound],reversal of established CCI-induced allodynia,[2],reversed established CCI-induced allodynia
"C=CCN1CC[C@]23c4c5ccc(O)c4O[C@H]2C(=O)CC[C@@]3(O)[C@H]1C5 [naloxone, reference compound]",ipsilateral and contralateral allodynia,"[2]; chronic intrathecal osmotic minipump, 20 or 60 ug/hr, 4-96 hr",attenuation
O=C1CC[C@]2(O)[C@@H]3Cc4ccc(O)c5c4[C@]2(CCN3CC2CC2)[C@@H]1O5 [(+)-naltrexone],morphine analgesia,[5]; [7],significant potentiation of analgesia
same,reversal of established CCI-induced allodynia,[2],reversed established CCI-induced allodynia

# — patent US20110251229A1 (priority 2007, published 2011)
